The target of data set [1] is T1, human H4 receptor (Homo sapiens, UniProt Q9H3N8).
Data set [2] deals with T1, human H4 receptor. This is another data set of the same source.
For data set [3], the target named is T1, human H4 receptor. Description: biochemical.
The target in data set [4] is T1, human H4 receptor. Description: biochemical. The source holds these as a separate data set.

Like-named read-outs stand apart in the source and are kept apart here.
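Wherever IC50 is given: membranes from SH-SY5Y cells with stable human H4 receptor expression, incubated with GDP 10 µM, radioactivity retained on filters counted by liquid scintillation.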
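Wherever Ki is given: radioligand displacement of a [3H]-labelled ligand from membranes of CHO cells stably expressing human H4 receptor, bound radioactivity counted on filters by liquid scintillation.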

T1 sequence (Q9H3N8 whole entry): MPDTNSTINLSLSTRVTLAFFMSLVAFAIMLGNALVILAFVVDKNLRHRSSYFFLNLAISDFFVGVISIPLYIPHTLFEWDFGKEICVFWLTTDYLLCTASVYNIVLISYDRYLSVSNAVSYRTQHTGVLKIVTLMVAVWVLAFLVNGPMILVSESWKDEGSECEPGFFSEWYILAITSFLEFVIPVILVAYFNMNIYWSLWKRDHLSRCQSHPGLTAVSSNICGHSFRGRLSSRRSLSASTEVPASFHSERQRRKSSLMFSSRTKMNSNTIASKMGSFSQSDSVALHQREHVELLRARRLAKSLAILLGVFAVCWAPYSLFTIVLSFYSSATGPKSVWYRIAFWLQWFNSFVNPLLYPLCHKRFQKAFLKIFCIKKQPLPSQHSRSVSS

“4-(1-methylpiperidin-4-yloxy)-2-phenylethynyl-9,10-dihydro-4H-3,10a-diaza-benzo[f]azulene [Example 34]”: on human H4 receptor [1], the Ki is under 300 nM. On human H4 receptor [2], this molecule returned an IC50 of under 300 nM.
Regarding `CN1CCC(OC2c3ccccc3CCn3cc(C#Cc4cccnc4)nc32)CC1` (stereo not shown) [Example 63, 4-(1-methylpiperidin-4-yloxy)-2-pyridin-3-ylethynyl-9,10-dihydro-4H-3,10a-diaza-benzo[f]azulene], on human H4 receptor [1], the Ki was under 1000 nM.
With `Cc1ccc(-c2cn3c(n2)C(OC2CCN(C)CC2)c2ccccc2CC3)s1` (stereo not shown) [Example 96, 4-(1-methylpiperidin-4-yloxy)-2-(5-methylthiophen-2-yl)-9,10-dihydro-4H-3,10a-diaza-benzo[f]azulene], at human H4 receptor [1], the Ki is under 300 nM. On human H4 receptor [2], this molecule displayed an IC50 of under 300 nM.
In turn, `Cc1cccc(-c2nc3n(c2C)CCc2ccccc2C3OC2CCN(C)CC2)c1` (stereo not shown) [Example 144, 1-methyl-4-(1-methylpiperidin-4-yloxy)-2-m-tolyl-9,10-dihydro-4H-3,10a-diaza-benzo[f]azulene] registered a melting point of 66 °C. For the same molecule, at human H4 receptor [3], the Ki was under 30 nM. The IC50 against human H4 receptor [4] is under 30 nM.
Regarding `Cc1c(-c2cccc(Cl)c2)nc2n1CCc1ccccc1C2OC1CCN(C)CC1` (stereo not shown) [Example 145, 2-(3-chlorophenyl)-1-methyl-4-(1-methylpiperidin-4-yloxy)-9,10-dihydro-4H-3,10a-diaza-benzo[f]azulene], the melting point was 72 °C. On human H4 receptor [3], the inhibition constant Ki was under 30 nM. The molecule further came in with an IC50 on human H4 receptor [4] of under 30 nM.
The molecule `Cc1c(-c2ccccc2Cl)nc2n1CCc1ccccc1C2OC1CCN(C)CC1` (stereo not shown) [Example 146, 2-(2-chlorophenyl)-1-methyl-4-(1-methylpiperidin-4-yloxy)-9,10-dihydro-4H-3,10a-diaza-benzo[f]azulene] registered a melting point of 78 °C. On human H4 receptor [3], the Ki was under 30 nM. The IC50 at human H4 receptor [4] is under 30 nM.
Take `Cc1ccccc1-c1nc2n(c1C)CCc1ccccc1C2OC1CCN(C)CC1` (stereo not shown) [Example 147, 1-methyl-4-(1-methylpiperidin-4-yloxy)-2-o-tolyl-9,10-dihydro-4H-3,10a-diaza-benzo[f]azulene]: the melting point was 74 °C. Besides, on human H4 receptor [3], the Ki was under 30 nM. This molecule also yielded an IC50 at human H4 receptor [4] of under 30 nM.
`COc1cccc(-c2nc3n(c2C)CCc2ccccc2C3OC2CCN(C)CC2)c1` (stereo not shown) [Example 150, 2-(3-methoxyphenyl)-1-methyl-4-(1-methypiperidin-4-yloxy)-9,10-dihydro-4H-3,10a-diaza-benzo[f]azulene]: the melting point came out at 138 °C. On human H4 receptor [3], this molecule gave a Ki of under 30 nM. At human H4 receptor [4], this molecule yielded a half-maximal inhibitory concentration (IC50) of under 30 nM.
`Cc1c(-c2ccc(C=CC(=O)OC(C)(C)C)cc2)nc2n1CCc1ccccc1C2OC1CCN(C)CC1` (stereo not shown) [Example 151, 3-{4-[1-methyl-4-(1-methylpiperidin-4-yloxy)-9,10-dihydro-4H-3,10a-diaza-benzo[f]azulen-2-yl]-phenyl}-acrylic acid tert-butyl ester]: the melting point was 185 °C. The molecule also had a Ki on human H4 receptor [3] of under 30 nM. For the same molecule, on human H4 receptor [4], the half-inhibitory concentration (IC50) is under 30 nM.
`Cc1ccc(-c2nc3n(c2C)CCc2ccccc2C3OC2CCN(C)CC2)cc1` (stereo not shown) [Example 153, 1-methyl-4-(1-methylpiperidin-4-yloxy)-2-p-tolyl-9,10-dihydro-4H-3,10a-diaza-benzo[f]azulene] displayed a melting point of 181 °C. Also, at human H4 receptor [3], the Ki is under 30 nM. The molecule further returned an IC50 at human H4 receptor [4] of under 30 nM.
`COc1ccc(-c2nc3n(c2C)CCc2ccccc2C3OC2CCN(C)CC2)cc1` (stereo not shown) [Example 156, 2-(4-methoxyphenyl)-1-methyl-4-(1-methylpiperidin-4-yloxy)-9,10-dihydro-4H-3,10a-diaza-benzo[f]azulene] came in with a melting point of 164 °C. The same molecule gave a Ki at human H4 receptor [3] of under 30 nM. Besides, the concentration for half-maximal inhibition (IC50) at human H4 receptor [4] was under 30 nM.
Take `Cc1c(-c2ccc(NS(=O)(=O)C3CC3)cc2)nc2n1CCc1ccccc1C2OC1CCN(C)CC1` (stereo not shown) [Example 187, 4-[1-methyl-4-(1-methylpiperidin-4-yloxy)-9,10-dihydro-4H-3,10a-diaza-benzo[f]azulen-2-yl]-phenyl-cyclopropanesulfonamide]: at human H4 receptor [1], the inhibition constant (Ki) is under 300 nM. In addition, the half-inhibitory concentration (IC50) at human H4 receptor [2] was under 300 nM.
On to `CN1CCC(OC2c3ccccc3CCn3c2nc(-c2ccccc2)c3CO)CC1` (stereo not shown) [Example 257, [4-(1-methylpiperidin-4-yloxy)-2-phenyl-9,10-dihydro-4H-3,10a-diaza-benzo[f]azulen-1-yl]-methanol], for which the melting point was 120 °C. The Ki on human H4 receptor [3] was under 300 nM. The IC50 at human H4 receptor [4] was under 300 nM.

The record behind these values is US9255101B2 (BIOPROJECT, priority 2012, dated 2016).
